{"source": "patent US7795246B2", "about": "“Particle-forming compositions containing fused pyrrolocarbazoles” (Cephalon, Inc., priority 1998, dated 2010)", "key": {"[1]": {"assay": "Bioavailability in monkeys (plasma pharmacokinetics, HPLC)", "format": "in vivo", "settings": "cynomolgus monkey", "protocol": "Pharmacokinetic parameters were measured following intravenous (i.v.) administration and oral (p.o.) administration. The test composition consisted of four male cynomolgus monkeys. The i.v. dose was administered as a bolus, at a dosage level of 3 mg/kg. The oral doses were administered as soft gelatin capsules, at a dosage level of 10 mg/kg (2 capsules/monkey/dose). The oral formulations were as described in Table 6, below.\nBlood samples were collected at predetermined time points. […] Pharmacokinetic parameters were estimated by non-compartmental methods. In Table 7, Cmax is peak plasma concentration; Tmax is time to peak plasma concentration; Tt/2 is apparent elimination half-life; AUC is area under the curve; and F % is absolute bioavailability."}, "[2]": {"settings": "cited from earlier work"}, "[3]": {"assay": "physchem", "format": "physicochemical", "description": "Thus, dissolving the fused pyrrolocarbazole initially in this particular particle-forming composition achieves a better than 3.2-fold increase in fused pyrrolocarbazole concentration in the final solution. Because initial contact with an aqueous medium occurs in vitro or in vivo, the non-aqueous particle-forming compositions are useful for therapeutic administration of a fused pyrrolocarbazole to a mammal."}, "[4]": {"tested_on": "rat tumor model of prostate cancer", "assay": "Rat tumor model of prostate cancer", "format": "in vivo"}, "[5]": {"assay": "in vivo", "settings": "beagle, dog, iv, 1 mg/kg", "quoted_text": "An intravenous dose was included as the third formulation in the crossover design. […] The plasma concentrations, as determined by HPLC with fluorescence detection, were normalized to a 1 mg/kg dose. Pharmacokinetic parameters, including peak plasma concentration (Cmax), time to peak plasma concentration (Tmax), apparent elimination half life (t1/2), area under the curve (AUCoo) and the absolute bioavailability (F %) were determined."}}, "note": "Like-named read-outs stand apart in the source and are kept apart here.", "data": [{"compound": "CCSCc1ccc2c(c1)c1c3c(c4c5cc(CSCC)ccc5n5c4c1n2C1CC(O)(C(=O)OC)C5(C)O1)CNC3=O", "note": "(stereo not shown) [Compound IIa-51]", "values": [{"measurement": "Tt/2", "setting": "[1]; i.v. bolus 3 mg/kg, PEG 1450:Pluronic F68:hydroxypropyl-β-cyclodextrin:water", "value": 3.0, "unit": "h"}, {"measurement": "AUC(0-t)", "setting": "[1]; male, plasma, iv, i.v. bolus 3 mg/kg, PEG 1450:Pluronic F68:hydroxypropyl-β-cyclodextrin:water, read-out: AUC0-4", "value": "2500 ± 348", "unit": "ng·h/mL"}, {"measurement": "clearance", "setting": "[1]; male, plasma, iv, i.v. dose 3 mg/kg", "value": 18.3, "unit": "mL/min/kg"}, {"measurement": "Vd", "setting": "[1]; male, plasma, iv, i.v. dose 3 mg/kg, read-out: mean volume of distribution", "value": "4.9 ± 0.7", "unit": "L/kg"}]}, {"compound": "C[C@]12O[C@H](C[C@]1(O)C(=O)O)n1c3ccccc3c3c4c(c5c6ccccc6n2c5c31)CNC4=O", "note": "[Compound K-252b, K-252b]", "values": [{"measurement": "solubility in water", "setting": "[2]", "value": "insoluble"}]}, {"compound": "COC(=O)[C@@]1(O)C[C@H]2O[C@]1(C)n1c3ccccc3c3c4c(c5c6ccccc6n2c5c31)C(=O)NC4", "note": "[Compound K-252a, K-252a]", "values": [{"measurement": "solubility in water", "setting": "[2]", "value": "insoluble"}]}, {"compound": "CC12OC(CC1(O)CO)n1c3ccccc3c3c4c(c5c6ccccc6n2c5c31)CNC4=O", "note": "(stereo not shown) [Compound IIa-12]", "values": [{"measurement": "solubility in water", "setting": "[3]", "value": "essentially no solubility"}, {"measurement": "solubility", "setting": "[3]; aqueous with cosolvent or surfactant or cyclodextrin, kinetic from dmso stock", "value": 570, "unit": "µg/mL"}, {"measurement": "solubility", "setting": "[3]; aqueous with cosolvent or surfactant or cyclodextrin, thermodynamic from solid", "value": 180, "unit": "µg/mL"}, {"measurement": "solubility", "setting": "[3]; organic solvent or mixture", "value": 28400, "unit": "µg/mL"}, {"measurement": "anticancer activity", "setting": "[4]", "value": "anticancer activity"}, {"measurement": "clearance", "setting": "[5]", "value": 13.2, "unit": "mL/min/kg"}, {"measurement": "half-life", "setting": "[5]", "value": 1.16, "unit": "h"}, {"measurement": "Vd", "setting": "[5]; apparent volume of distribution Vc", "value": 0.96, "unit": "L/kg"}, {"measurement": "Vd", "setting": "[5]; apparent volume of distribution Vβ", "value": 1.35, "unit": "L/kg"}]}, {"compound": "C[C@@H]1O[C@@H](n2c3ccccc3c3c4c(c5c6ccccc6[nH]c5c32)CNC4=O)[C@H](O)[C@H](O)[C@H]1O", "note": "[Compound K-252d, K-252d]", "values": [{"measurement": "solubility in water", "setting": "[2]", "value": "insoluble"}]}]}
